Experimental data reported in ChEMBL document CHEMBL5338732, “Perspective for Discovery of Small Molecule IL-6 Inhibitors through Study of Structure-Activity Relationships and Molecular Docking” (J Med Chem, 2023).

Columns and labels:
Format in all cases: functional, cell-based
[1] = system: MH60; test: Cytotoxicity in mouse MH60 cells assessed as inhibition of recombinant human IL-6-induced growth incubated for 72 hrs by tetrazolium method; details: MH60, 72 h
[2] = system: MDA-MB-435; test: Cytotoxicity against human MDA-MB-435 cells assessed as reduction in cell growth incubated for 72 hrs by MTT assay; details: MDA-MB-435, 72 h
[3] = Cytotoxicity against human HCT116-p53-null cells assessed as inhibition of cell growth incubated for 72 hrs by MTT assay
[4] = Cytotoxicity against human p53HCT116 cells assessed as inhibition of cell growth incubated for 72 hrs by MTT assay; details: p53HCT116, 72 h

## CCCCC1=C(C)C(=O)[C@@](C)(CN2c3ccccc3[C@]3(O)CCO[C@H]23)C1=O
[1]
  IC50: 8 µM

## Cc1c(-c2ccc(O)cc2)n(Cc2ccc(OCCN3CCCCCC3)cc2)c2ccc(O)cc12 [BAZEDOXIFENE]
[1]
  IC50: 3.8 µM

## CCCCC1=C(C)C(=O)[C@](C)(CN2c3ccccc3[C@]3(O)CCO[C@H]23)C1=O
[1]
  IC50: 30 µM

## O=C(NNc1nc2cc(F)ccc2n2cccc12)c1cnccn1
[2]
  IC50: 0.4 µM
[3]
  IC50: 0.4 µM
[4]
  IC50: 0.4 µM
